In PubChem BioAssay (NCI):
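Where inhibition never reached the appropriate level, the endpoint shown equals the highest concentration tested. Otherwise, values were interpolated linearly from a five-concentration, 48-hour dose response in 96-well plates. TGI denotes the concentration required for complete inhibition of growth.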

Legend:
Test in all cases: NCI-60 cell line screen, 48 h
SF-268 CNS = tested on: SF-268 CNS
OVCAR-4 ovarian = tested on: OVCAR-4 ovarian
SF-295 CNS = tested on: SF-295 CNS
OVCAR-3 ovarian = tested on: OVCAR-3 ovarian
786-0 renal = tested on: 786-0 renal
HT29 colon = tested on: HT29 colon
A549 NSCLC = tested on: A549 NSCLC
MDA-N = tested on: MDA-N
OVCAR-8 ovarian = tested on: OVCAR-8 ovarian
SR leukemia = tested on: SR leukemia
HOP-92 NSCLC = tested on: HOP-92 NSCLC
M14 melanoma = tested on: M14 melanoma
MALME-3M melanoma = tested on: MALME-3M melanoma
NCI-H23 lung = tested on: NCI-H23 lung
UO-31 renal = tested on: UO-31 renal
MCF7 breast = tested on: MCF7 breast
SN12C renal = tested on: SN12C renal
A498 renal = tested on: A498 renal
K-562 leukemia = tested on: K-562 leukemia
ACHN renal = tested on: ACHN renal
NCI-H522 lung = tested on: NCI-H522 lung
CAKI-1 renal = tested on: CAKI-1 renal
HCT-15 colon = tested on: HCT-15 colon
UACC-257 melanoma = tested on: UACC-257 melanoma
SNB-75 CNS = tested on: SNB-75 CNS
HL-60(TB) leukemia = tested on: HL-60(TB) leukemia
HCT-116 colon = tested on: HCT-116 colon
MDA-MB-231 breast = tested on: MDA-MB-231 breast
SK-MEL-5 melanoma = tested on: SK-MEL-5 melanoma
EKVX NSCLC = tested on: EKVX NSCLC
SF-539 CNS = tested on: SF-539 CNS
U251 CNS = tested on: U251 CNS
HS 578T breast = tested on: HS 578T breast
NCI-H226 lung = tested on: NCI-H226 lung
NCI/ADR-RES ovarian = tested on: NCI/ADR-RES ovarian
SNB-19 CNS = tested on: SNB-19 CNS
HOP-62 NSCLC = tested on: HOP-62 NSCLC
COLO 205 colon = tested on: COLO 205 colon
OVCAR-5 ovarian = tested on: OVCAR-5 ovarian
SK-MEL-28 melanoma = tested on: SK-MEL-28 melanoma
TK-10 renal = tested on: TK-10 renal
UACC-62 melanoma = tested on: UACC-62 melanoma
MDA-MB-435 = tested on: MDA-MB-435
HCC-2998 colon = tested on: HCC-2998 colon
LOX IMVI melanoma = tested on: LOX IMVI melanoma
DU-145 prostate = tested on: DU-145 prostate
CCRF-CEM leukemia = tested on: CCRF-CEM leukemia
RXF 393 renal = tested on: RXF 393 renal
MOLT-4 leukemia = tested on: MOLT-4 leukemia
SW-620 colon = tested on: SW-620 colon
T-47D breast = tested on: T-47D breast
KM12 colon = tested on: KM12 colon
SK-MEL-2 melanoma = tested on: SK-MEL-2 melanoma
IGROV1 ovarian = tested on: IGROV1 ovarian
SK-OV-3 ovarian = tested on: SK-OV-3 ovarian
RPMI-8226 leukemia = tested on: RPMI-8226 leukemia
BT-549 breast = tested on: BT-549 breast
NCI-H460 lung = tested on: NCI-H460 lung
PC-3 prostate = tested on: PC-3 prostate

COC(=O)c1ccccc1C1CN=NC12Cc1c(C)cccc1C2=O (configuration not stated)
TGI (SF-268 CNS): > 100 µM
TGI (OVCAR-4 ovarian): > 100 µM
TGI (SF-295 CNS): > 100 µM
TGI (OVCAR-3 ovarian): > 100 µM
TGI (786-0 renal): > 100 µM
TGI (HT29 colon): > 100 µM
TGI (A549 NSCLC): > 100 µM
TGI (MDA-N): > 100 µM
TGI (OVCAR-8 ovarian): > 100 µM
TGI (SR leukemia): > 100 µM
TGI (HOP-92 NSCLC): > 100 µM
TGI (M14 melanoma): > 100 µM
TGI (MALME-3M melanoma): > 100 µM
TGI (NCI-H23 lung): > 100 µM
TGI (UO-31 renal): > 100 µM
TGI (MCF7 breast): > 100 µM
TGI (SN12C renal): > 100 µM
TGI (A498 renal): > 100 µM
TGI (K-562 leukemia): > 100 µM
TGI (ACHN renal): > 100 µM
TGI (NCI-H522 lung): > 100 µM
TGI (CAKI-1 renal): > 100 µM
TGI (HCT-15 colon): > 100 µM
TGI (UACC-257 melanoma): > 100 µM
TGI (SNB-75 CNS): > 100 µM
TGI (HL-60(TB) leukemia): > 100 µM
TGI (HCT-116 colon): > 100 µM
TGI (MDA-MB-231 breast): > 100 µM
TGI (SK-MEL-5 melanoma): > 100 µM
TGI (EKVX NSCLC): > 100 µM
TGI (SF-539 CNS): > 100 µM
TGI (U251 CNS): > 100 µM
TGI (HS 578T breast): > 100 µM
TGI (NCI-H226 lung): > 100 µM
TGI (NCI/ADR-RES ovarian): > 100 µM
TGI (SNB-19 CNS): > 100 µM
TGI (HOP-62 NSCLC): > 100 µM
TGI (COLO 205 colon): > 100 µM
TGI (OVCAR-5 ovarian): > 100 µM
TGI (SK-MEL-28 melanoma): > 100 µM
TGI (TK-10 renal): > 100 µM
TGI (UACC-62 melanoma): > 100 µM
TGI (MDA-MB-435): > 100 µM
TGI (HCC-2998 colon): > 100 µM
TGI (LOX IMVI melanoma): > 100 µM
TGI (DU-145 prostate): > 100 µM
TGI (CCRF-CEM leukemia): > 100 µM
TGI (RXF 393 renal): > 100 µM
TGI (MOLT-4 leukemia): > 100 µM
TGI (SW-620 colon): > 100 µM
TGI (T-47D breast): > 100 µM
TGI (KM12 colon): > 100 µM
TGI (SK-MEL-2 melanoma): > 100 µM
TGI (IGROV1 ovarian): > 100 µM
TGI (SK-OV-3 ovarian): > 100 µM
TGI (RPMI-8226 leukemia): > 100 µM
TGI (BT-549 breast): > 100 µM
TGI (NCI-H460 lung): > 100 µM

O=S(=O)(/N=C(\NO)Nc1ccc(Cl)cc1)c1cc2ccccc2o1
TGI (SF-268 CNS): 55.7 µM
TGI (OVCAR-4 ovarian): 56 µM
TGI (SF-295 CNS): 47 µM
TGI (OVCAR-3 ovarian): 28.5 µM
TGI (786-0 renal): 39.3 µM
TGI (HT29 colon): 47.2 µM
TGI (A549 NSCLC): > 100 µM
TGI (MDA-N): 59.6 µM
TGI (OVCAR-8 ovarian): 39.8 µM
TGI (HOP-92 NSCLC): 29 µM
TGI (M14 melanoma): 49.6 µM
TGI (MALME-3M melanoma): 45.2 µM
TGI (NCI-H23 lung): 48 µM
TGI (UO-31 renal): 91.2 µM
TGI (PC-3 prostate): 69 µM
TGI (SN12C renal): 36.1 µM
TGI (K-562 leukemia): > 100 µM
TGI (ACHN renal): 46.1 µM
TGI (NCI-H522 lung): 25.7 µM
TGI (CAKI-1 renal): 36.7 µM
TGI (HCT-15 colon): 34.2 µM
TGI (UACC-257 melanoma): 51.7 µM
TGI (SNB-75 CNS): > 100 µM
TGI (HL-60(TB) leukemia): 37.5 µM
TGI (HCT-116 colon): 24.8 µM
TGI (MDA-MB-231 breast): 40.9 µM
TGI (SK-MEL-5 melanoma): 30.9 µM
TGI (EKVX NSCLC): 41.9 µM
TGI (SF-539 CNS): > 100 µM
TGI (U251 CNS): 33.4 µM
TGI (HS 578T breast): 52.8 µM
TGI (NCI-H226 lung): 71.7 µM
TGI (NCI/ADR-RES ovarian): 55.1 µM
TGI (SNB-19 CNS): > 100 µM
TGI (HOP-62 NSCLC): 83 µM
TGI (COLO 205 colon): 51.1 µM
TGI (OVCAR-5 ovarian): 57.2 µM
TGI (SK-MEL-28 melanoma): 35 µM
TGI (TK-10 renal): > 100 µM
TGI (UACC-62 melanoma): 29.3 µM
TGI (MDA-MB-435): 29.7 µM
TGI (LOX IMVI melanoma): 23.9 µM
TGI (DU-145 prostate): > 100 µM
TGI (CCRF-CEM leukemia): 57.4 µM
TGI (RXF 393 renal): 95 µM
TGI (MOLT-4 leukemia): > 100 µM
TGI (SW-620 colon): 65.1 µM
TGI (T-47D breast): > 100 µM
TGI (KM12 colon): 33.5 µM
TGI (SK-MEL-2 melanoma): 35.9 µM
TGI (IGROV1 ovarian): 30.7 µM
TGI (SK-OV-3 ovarian): 62.3 µM
TGI (BT-549 breast): 34.8 µM
TGI (NCI-H460 lung): > 100 µM
